Data as given in BigSolDB 2.1.

For `O=C1C(CCS(=O)c2ccccc2)C(=O)N(c2ccccc2)N1c1ccccc1` (stereo not drawn), the solubility (mole fraction) (in 2-butanone, 283.15 K) was 0.0136, the solubility (mole fraction) (in 2-butanone, 288.15 K) was 0.0157 and the solubility (mole fraction) (in 2-butanone, 293.15 K) was 0.0199. For the same compound, the solubility (mole fraction) (in 2-butanone, 298.15 K) was 0.0241, the solubility (mole fraction) (in 2-butanone, 303.15 K) was 0.0288 and the solubility (mole fraction) (in 2-butanone, 308.15 K) was 0.0333. The solubility (mole fraction) (in 2-butanone, 313.15 K) was 0.0388, the solubility (mole fraction) (in 2-butanone, 318.15 K) was 0.0495 and the solubility (mole fraction) (in 2-butanone, 323.15 K) was 0.0601. It also gave a solubility (mole fraction) (in acetone, 283.15 K) of 0.0138, a solubility (mole fraction) (in acetone, 288.15 K) of 0.0165 and a solubility (mole fraction) (in acetone, 293.15 K) of 0.02. The solubility (mole fraction) (in acetone, 298.15 K) was 0.0244, the solubility (mole fraction) (in acetone, 303.15 K) was 0.0293 and the solubility (mole fraction) (in acetone, 308.15 K) was 0.0371. The solubility (mole fraction) (in acetone, 313.15 K) was 0.0452, the solubility (mole fraction) (in acetone, 318.15 K) was 0.0524 and the solubility (mole fraction) (in acetone, 323.15 K) was 0.0745. For the same compound, the solubility (mole fraction) (in acetonitrile, 283.15 K) was 0.0131, the solubility (mole fraction) (in acetonitrile, 288.15 K) was 0.0155 and the solubility (mole fraction) (in acetonitrile, 293.15 K) was 0.0213. For the same compound, the solubility (mole fraction) (in acetonitrile, 298.15 K) was 0.0265, the solubility (mole fraction) (in acetonitrile, 303.15 K) was 0.0334 and the solubility (mole fraction) (in acetonitrile, 308.15 K) was 0.0474. It also gave a solubility (mole fraction) (in acetonitrile, 313.15 K) of 0.0648, a solubility (mole fraction) (in acetonitrile, 318.15 K) of 0.0799 and a solubility (mole fraction) (in acetonitrile, 323.15 K) of 0.103. For the same compound, the solubility (mole fraction) (in ethanol, 283.15 K) was 0.00156, the solubility (mole fraction) (in ethanol, 288.15 K) was 0.00211 and the solubility (mole fraction) (in ethanol, 293.15 K) was 0.0027. The solubility (mole fraction) (in ethanol, 298.15 K) was 0.00356, the solubility (mole fraction) (in ethanol, 303.15 K) was 0.0045 and the solubility (mole fraction) (in ethanol, 308.15 K) was 0.00542. It also gave a solubility (mole fraction) (in ethanol, 313.15 K) of 0.00719, a solubility (mole fraction) (in ethanol, 318.15 K) of 0.00956 and a solubility (mole fraction) (in ethanol, 323.15 K) of 0.0137. For the same compound, the solubility (mole fraction) (in isopropanol, 283.15 K) was 0.000256, the solubility (mole fraction) (in isopropanol, 288.15 K) was 0.000609 and the solubility (mole fraction) (in isopropanol, 293.15 K) was 0.00104. The solubility (mole fraction) (in isopropanol, 298.15 K) was 0.00204, the solubility (mole fraction) (in isopropanol, 303.15 K) was 0.00302 and the solubility (mole fraction) (in isopropanol, 308.15 K) was 0.0045. The solubility (mole fraction) (in isopropanol, 313.15 K) was 0.00583, the solubility (mole fraction) (in isopropanol, 318.15 K) was 0.0071 and the solubility (mole fraction) (in isopropanol, 323.15 K) was 0.00937. It also gave a solubility (mole fraction) (in methanol, 283.15 K) of 0.0026, a solubility (mole fraction) (in methanol, 288.15 K) of 0.00318 and a solubility (mole fraction) (in methanol, 293.15 K) of 0.00401. It also gave a solubility (mole fraction) (in methanol, 298.15 K) of 0.00508, a solubility (mole fraction) (in methanol, 303.15 K) of 0.00679 and a solubility (mole fraction) (in methanol, 308.15 K) of 0.00864. The solubility (mole fraction) (in methanol, 313.15 K) was 0.0114, the solubility (mole fraction) (in methanol, 318.15 K) was 0.0176 and the solubility (mole fraction) (in methanol, 323.15 K) was 0.0278. For the same compound, the solubility (mole fraction) (in methyl acetate, 283.15 K) was 0.00978, the solubility (mole fraction) (in methyl acetate, 288.15 K) was 0.0109 and the solubility (mole fraction) (in methyl acetate, 293.15 K) was 0.0139. For the same compound, the solubility (mole fraction) (in methyl acetate, 298.15 K) was 0.0161, the solubility (mole fraction) (in methyl acetate, 303.15 K) was 0.0195 and the solubility (mole fraction) (in methyl acetate, 308.15 K) was 0.0222. The solubility (mole fraction) (in methyl acetate, 313.15 K) was 0.0272, the solubility (mole fraction) (in methyl acetate, 318.15 K) was 0.0345 and the solubility (mole fraction) (in methyl acetate, 323.15 K) was 0.0485. It also gave a solubility (mole fraction) (in n-butanol, 283.15 K) of 0.00169, a solubility (mole fraction) (in n-butanol, 288.15 K) of 0.00245 and a solubility (mole fraction) (in n-butanol, 293.15 K) of 0.00314. For the same compound, the solubility (mole fraction) (in n-butanol, 298.15 K) was 0.00438, the solubility (mole fraction) (in n-butanol, 303.15 K) was 0.00592 and the solubility (mole fraction) (in n-butanol, 308.15 K) was 0.00724. The solubility (mole fraction) (in n-butanol, 313.15 K) was 0.00971, the solubility (mole fraction) (in n-butanol, 318.15 K) was 0.0129 and the solubility (mole fraction) (in n-butanol, 323.15 K) was 0.0166. It also gave a solubility (mole fraction) (in n-pentanol, 283.15 K) of 0.00284, a solubility (mole fraction) (in n-pentanol, 288.15 K) of 0.00357 and a solubility (mole fraction) (in n-pentanol, 293.15 K) of 0.00429. It also gave a solubility (mole fraction) (in n-pentanol, 298.15 K) of 0.0053, a solubility (mole fraction) (in n-pentanol, 303.15 K) of 0.00627 and a solubility (mole fraction) (in n-pentanol, 308.15 K) of 0.00725. The solubility (mole fraction) (in n-pentanol, 313.15 K) was 0.00824, the solubility (mole fraction) (in n-pentanol, 318.15 K) was 0.00921 and the solubility (mole fraction) (in n-pentanol, 323.15 K) was 0.0109. The solubility (mole fraction) (in n-propanol, 283.15 K) was 0.00198, the solubility (mole fraction) (in n-propanol, 288.15 K) was 0.00266 and the solubility (mole fraction) (in n-propanol, 293.15 K) was 0.00347. It also gave a solubility (mole fraction) (in n-propanol, 298.15 K) of 0.00485, a solubility (mole fraction) (in n-propanol, 303.15 K) of 0.00617 and a solubility (mole fraction) (in n-propanol, 308.15 K) of 0.00752. It also gave a solubility (mole fraction) (in n-propanol, 313.15 K) of 0.0101, a solubility (mole fraction) (in n-propanol, 318.15 K) of 0.0132 and a solubility (mole fraction) (in n-propanol, 323.15 K) of 0.0183. For the same compound, the solubility (mole fraction) (in sec-butanol, 283.15 K) was 0.0024, the solubility (mole fraction) (in sec-butanol, 288.15 K) was 0.00301 and the solubility (mole fraction) (in sec-butanol, 293.15 K) was 0.00388. It also gave a solubility (mole fraction) (in sec-butanol, 298.15 K) of 0.0047, a solubility (mole fraction) (in sec-butanol, 303.15 K) of 0.00546 and a solubility (mole fraction) (in sec-butanol, 308.15 K) of 0.00655. For the same compound, the solubility (mole fraction) (in sec-butanol, 313.15 K) was 0.00876, the solubility (mole fraction) (in sec-butanol, 318.15 K) was 0.0109 and the solubility (mole fraction) (in sec-butanol, 323.15 K) was 0.0156. For the same compound, the solubility (mole fraction) (in water, 283.15 K) was 3.6e-05, the solubility (mole fraction) (in water, 288.15 K) was 6.32e-05 and the solubility (mole fraction) (in water, 293.15 K) was 0.000111. It also gave a solubility (mole fraction) (in water, 298.15 K) of 0.000176, a solubility (mole fraction) (in water, 303.15 K) of 0.000264 and a solubility (mole fraction) (in water, 308.15 K) of 0.000352. It also gave a solubility (mole fraction) (in water, 313.15 K) of 0.000479, a solubility (mole fraction) (in water, 318.15 K) of 0.000615 and a solubility (mole fraction) (in water, 323.15 K) of 0.000777.
